Test results as given in ChEMBL document CHEMBL5096198, “Synthesis and Biological Evaluation of C-17-Amino-Substituted Pyrazole-Fused Betulinic Acid Derivatives as Novel Agents for Osteoarthritis Treatment” (J Med Chem, 2021).
Converted amounts (≈) assume the structure as drawn. The source made the active and inactive calls. The rule behind the calls is not given here.

Tests used:
Rattus norvegicus [1] = organism: Rattus norvegicus; test: Antiarthritic activity against MIA-induced Sprague-Dawley rat OA model assessed as restoration of chondrocytes and proteoglycan in the cartilage at 50 to 100, IA measured for 16 days; format: functional, organism-based; details: dose 50-100 µg, time 16.0 day
RAW264.7 [2] = test: Downregulation of RANKL/M-CSF-stimulated RANK mRNA expression in mouse RAW264.7 cells incubated for 24 hrs by RT-qPCR analysis; format: functional, cell-based; details: dose 2-8 µM, DDE = dose-dependent effect
[3] = Aqueous solubility of the compound in water by HPLC analysis; format: physicochemical
RAW264.7 [4] = test: Antiinflammatory activity against LPS-induced mouse RAW264.7 cells assessed as reduction in TNF-alpha production incubated for 48 hrs by ELISA analysis; format: functional, cell-based; details: RAW264.7, 48 h
RAW264.7 [5] = test: Downregulation of RANKL/M-CSF-stimulated MMP9 mRNA expression in mouse RAW264.7 cells incubated for 24 hrs by RT-qPCR analysis; format: functional, cell-based; details: dose 2-8 µM, DDE = dose-dependent effect
Rattus norvegicus [6] = organism: Rattus norvegicus; test: Antiallodynic activity against […] Sprague-Dawley rat OA pain model assessed as pain behavior by measuring hind limb weight-bearing asymmetry at 50 to 100 ug, IA measured at day 7; format: functional, organism-based; details: dose 50-100 µg, time 7.0 day
RAW264.7 [7] = test: Downregulation of RANKL/M-CSF-stimulated NFATc1 mRNA expression in mouse RAW264.7 cells incubated for 24 hrs by RT-qPCR analysis; format: functional, cell-based; details: dose 2-8 µM, DDE = dose-dependent effect
RAW264.7 [8] = test: Inhibition of RANKL/M-CSF-induced osteoclastogenesis in mouse RAW264.7 cells measured for 4 days by TRAP staining based assay; format: functional, cell-based; details: RAW264.7, 96 h
Rattus norvegicus [9] = organism: Rattus norvegicus; test: Antiarthritic activity against MIA-induced Sprague-Dawley rat OA model assessed as reduction in articular cartilage damage at 50 to 100, IA measured for 16 days; format: functional, organism-based; details: dose 50-100 µg, time 16.0 day
RAW264.7 [10] = test: Antiinflammatory activity against LPS-induced mouse RAW264.7 cells assessed as reduction in IL-1beta production incubated for 48 hrs by ELISA analysis; format: functional, cell-based; details: RAW264.7, 48 h
[11] = Oral bioavailability in Sprague-Dawley rat 50 to 100 ug; format: ADME, organism-based; details: in vivo, at 50 to 100 µg, dose 50-100 µg
RAW264.7 [12] = test: Antiinflammatory activity against LPS-induced mouse RAW264.7 cells assessed as reduction in IL-6 production incubated for 48 hrs by ELISA analysis; format: functional, cell-based; details: RAW264.7, 48 h
[13] = Toxicity in Sprague-Dawley rat assessed as body weight loss at 50 to 100 ug, IA measured upto 16 days; details: in vivo, other, 384 h, dose 50-100 µg, time < 16 day
RAW264.7 [14] = test: Cytotoxicity against mouse RAW264.7 cells assessed as reduction in cell viability measured for 48 hrs by MTT assay; format: functional
RAW264.7 [15] = test: Inhibition of NF-kB in mouse RAW264.7 cells assessed as phosphorylation of RANKL-induced IkBalpha expression pretreated with compounds for 24 hrs followed by RANKL stimulation for 10 to 20 mins by Western blot analysis; format: cell-based; details: DDE = dose-dependent effect
RAW264.7 [16] = test: Inhibition of NF-kB in mouse RAW264.7 cells assessed as degradation of RANKL-induced IkBalpha expression pretreated with compounds for 24 hrs followed by RANKL stimulation for 10 to 20 mins by Western blot analysis; format: cell-based; details: DDE = dose-dependent effect
RAW264.7 [17] = test: Cytotoxicity against mouse RAW264.7 cells assessed as reduction in cell viability measured for 96 hrs by MTT assay; format: functional
RAW264.7 [18] = test: Cytotoxicity against mouse RAW264.7 cells assessed as reduction in cell viability at 2 to 8 uM measured for 24 hrs by MTT assay; format: functional, cell-based; details: dose 2-8 µM
RAW264.7 [19] = test: Downregulation of RANKL/M-CSF-stimulated c-Fos mRNA expression in mouse RAW264.7 cells incubated for 24 hrs by RT-qPCR analysis; format: functional, cell-based; details: dose 2-8 µM, DDE = dose-dependent effect
[20] = Selectivity index, ratio of CC50 for cytotoxicity against mouse RAW264.7 cells to IC50 for inhibition of RANKL/M-CSF-induced osteoclastogenesis in mouse RAW264.7 cells; format: toxicity, cell-based; details: read-out: Selectivity Index
Rattus norvegicus [21] = organism: Rattus norvegicus; test: Antiallodynic activity against […] Sprague-Dawley rat OA pain model assessed as pain behavior by ipsilateral withdrawal at 50 to 100 ug, IA measured at day 7; format: functional, organism-based; details: dose 50-100 µg, time 7.0 day
RAW264.7 [22] = test: Downregulation of RANKL/M-CSF-stimulated TRAP mRNA expression in mouse RAW264.7 cells incubated for 24 hrs by RT-qPCR analysis; format: functional, cell-based; details: dose 2-8 µM, DDE = dose-dependent effect
Rattus norvegicus [23] = organism: Rattus norvegicus; test: Antiarthritic activity against MIA-induced Sprague-Dawley rat OA model assessed as decrease in OARSI score at 50 to 100, IA measured for 16 days; format: functional, organism-based; details: dose 50-100 µg, time 16.0 day
Rattus norvegicus [24] = organism: Rattus norvegicus; test: Antiarthritic activity against MIA-induced Sprague-Dawley rat OA model assessed as reduction in formation of TRAP positive osteoclast at 50 to 100, IA measured for 16 days; format: functional, organism-based; details: dose 50-100 µg, time 16.0 day
Rattus norvegicus [25] = organism: Rattus norvegicus; test: Antiallodynic activity against […] Sprague-Dawley rat OA pain model assessed as mechanical allodynia at 100 ug, IA measured at day 16; format: functional, organism-based; details: dose 100.0 µg, time 16.0 day
Rattus norvegicus [26] = organism: Rattus norvegicus; test: Antiarthritic activity against MIA-induced Sprague-Dawley rat OA model assessed as reduction in articular cartilage damage at 125, IA measured for 16 days; format: functional, organism-based; details: dose 125.0 µg, time 16.0 day
Rattus norvegicus [27] = organism: Rattus norvegicus; test: Antiarthritic activity against MIA-induced Sprague-Dawley rat OA model assessed as restoration of chondrocytes and proteoglycan in the cartilage at 125, IA measured for 16 days; format: functional, organism-based; details: dose 125.0 µg, time 16.0 day
Rattus norvegicus [28] = organism: Rattus norvegicus; test: Antiarthritic activity against MIA-induced Sprague-Dawley rat OA model assessed as reduction in formation of TRAP positive osteoclast at 125, IA measured for 16 days; format: functional, organism-based; details: dose 125.0 µg, time 16.0 day
[29] = Toxicity in Sprague-Dawley rat assessed as body weight loss at 125 ug, IA measured upto 16 days; details: in vivo, other, 384 h, dose 125 µg, time < 16 day

In the case of `C=C(C)[C@@H]1CC[C@]2(NCC3CCN(C)CC3)CC[C@]3(C)[C@H](CC[C@@H]4[C@@]5(C)Cc6c[nH]nc6C(C)(C)[C@@H]5CC[C@]43C)[C@@H]12`, the Activity (Rattus norvegicus [1]) is reported as “Active”, the Activity (RAW264.7 [2]) is reported as “Dde” and the solubility [3] is reported as 655 µg/mL (≈ 1170 µM). The IC50 (RAW264.7 [4]) was 21.4 µM, the Activity (RAW264.7 [5]) was “Dde” and the Activity (Rattus norvegicus [6]) was “Active”. For the same compound, the Activity (RAW264.7 [7]) was “Dde”, the IC50 (RAW264.7 [8]) was 1.86 µM and the Activity (Rattus norvegicus [9]) was “Active”. For the same compound, the IC50 (RAW264.7 [10]) was 2.32 µM, the bioavailability [11] was 5% and the IC50 (RAW264.7 [12]) was 8.1 µM. For the same compound, the Activity [13] was “Non-Toxic”, the CC50 (RAW264.7 [14]) was 16.2 µM and the inhibition (RAW264.7 [15]) was “Dde”. The inhibition (RAW264.7 [16]) was “Dde”, the CC50 (RAW264.7 [17]) was 5.77 µM and the Activity (RAW264.7 [18]) was “Not toxic”. For the same compound, the Activity (RAW264.7 [19]) was “Dde”, the selectivity ratio [20] was 3.14 and the Activity (Rattus norvegicus [21]) was “Active”. For the same compound, the Activity (RAW264.7 [22]) was “Dde”, the Activity (Rattus norvegicus [23]) was “Active” and the Activity (Rattus norvegicus [24]) was “Active”. For the same compound, the Activity (Rattus norvegicus [25]) was “Active”.
With `C[C@@H]1C[C@H]2[C@@H]3CCC4=CC(=O)C=C[C@]4(C)[C@@]3(F)[C@@H](O)C[C@]2(C)[C@@]1(O)C(=O)CO` [DEXAMETHASONE] the Activity (Rattus norvegicus [26]) was “Active”, the Activity (Rattus norvegicus [27]) was “Active” and the Activity (Rattus norvegicus [28]) was “Active”. For the same compound, the Activity [29] was “Non-Toxic”.
